Measured values published in the METLIN SMRT retention time set (Domingo-Almenara et al. 2019).

Assay: gradient 5% acetonitrile 3 min, to 50% in 2 min, to 85% in 15 min, held 3 min, 100 µL/min
Conditions: column: Zorbax Extend-C18 2.1 x 50 mm; eluents: water / acetonitrile, 0.1% formic acid
Summary of the method: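 Using water and acetonitrile that each contained 0.1% formic acid, mixtures of ~100 pure standards were separated at 100 μL/min on a Zorbax Extend-C18 column (2.1 × 50 mm, 1.8 μm). The HPLC fed a quadrupole time-of-flight mass spectrometer working in positive and negative ionization mode, with dead and dwell volumes of 40 μL and 900 μL. Data were acquired over 3 months. Retention time was read from computationally picked adduct peaks after manual inspection of each.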

Row | SMILES | RP-LC retention time [s]
1 | COc1ccc(NC(=O)N2CCC(n3c(C(F)(F)F)nc4cccnc43)CC2)c(OC)c1 | 768
2 | CCC(=O)Nc1ccc2c(c1)CN(C(=O)c1ccccc1F)C(C(=O)N1CCCC1)C2 (configuration not stated) | 672
3 | CNC(=O)C1CCN(Cc2noc(-c3ccc(F)cc3)n2)CC1 | 581
4 | Cc1cc(C)c2c(N3CCOCC3)nc(C(=O)NCCC(C)C)nc2n1 | 648
5 | CC(C)C(NC(=O)NCc1ccc(F)cc1)C(=O)N1CCc2ccccc21 (configuration not stated) | 917
6 | Cn1cc(C(=O)NCc2ccc(F)cc2F)c(S(=O)(=O)N2CCSCC2)n1 | 876
7 | CCCn1cc(CCNC(=O)c2c(F)cccc2Cl)c2cccnc21 | 764
8 | CN1CCN(C(c2cccnc2)c2c(NC(=O)c3ccco3)sc3c2CCCC3)CC1 (configuration not stated) | 611
9 | Cc1nc(-c2ccccc2)cc2nn(CC(=O)NC(C)CCc3ccccc3)c(=O)n12 (configuration not stated) | 989
10 | Cc1ccc(C)c(NC(=O)C2CCN(S(=O)(=O)c3cc(C(=O)N(C)C)cs3)CC2)c1 | 790
11 | CCC(C)N1CC(=O)N(c2ccc(OC)c(Cl)c2)[C@@H]2CS(=O)(=O)C[C@@H]21 (some centres not stated) | 786
12 | COC(=O)c1ccccc1NC(=O)CSc1cc(N2CCN(c3ccccc3F)CC2)ncn1 | 1170
13 | O=C(Nc1ccc2c(c1)OCO2)C1COCC(=O)N1Cc1ccccc1 (configuration not stated) | 688
14 | CCOc1ccc(-c2nc(CNC(=O)Nc3ccccc3OCC)c(C)o2)cc1 | 1080
15 | COc1cc(Nc2ncc3c(n2)-c2ccc(Cl)cc2C(c2c(F)cccc2OC)=NC3)ccc1C(=O)O | 919
16 | CN1C(=O)COc2ccc(-c3csc(NC(=O)c4cccnc4)n3)cc21 | 733
17 | COc1ccc(N2CCN(C(=O)c3sc4cccc(F)c4c3OC)CC2)cc1 | 998
18 | CC1CN(Cc2nc3c(c(=O)n(C)c(=O)n3C)n2Cc2ccc(Br)cc2)CC(C)O1 (configuration not stated) | 755
19 | O=C(Cn1c(CN2CCCCCC2)nc2ccccc21)N1CCOCC1 | 596
20 | Cc1[nH]c(-c2ccccc2)cc1C(=O)N1CCCCCC1 | 896
21 | CCOc1ccc(S(=O)(=O)N2CCCC2c2nc(-c3cccc(Cl)c3)no2)cc1 (configuration not stated) | 1230
22 | CCOc1cc(=O)n2c(c1C(=O)Nc1cc(OC)c(Cl)cc1OC)CCCC2 | 763

Row | SMILES | RP-LC retention time [s]
23 | O=C(CSc1nnc2c3cc(-c4ccccc4)nn3ccn12)Nc1ccccc1Br | 908
24 | CCOc1ccc(NC(=O)C2CCN(C(=O)C3Sc4ccccc4NC3=O)CC2)cc1 (configuration not stated) | 725
25 | O=C(NCc1ccc(Br)cc1)c1sc2ncccc2c1-n1cccc1 | 1090
26 | Cn1nccc1-c1cccc(-c2noc(-c3ccccn3)n2)c1 | 818
27 | Cc1ccc(C)c(NC(=O)Cc2csc3nc(-c4ccccc4)cn23)c1 | 845
28 | CC(C)N1CCN(Cc2ccc(C(=O)NCc3ccccc3)cc2)C(=O)C1=O | 685
29 | O=C(Cn1cnc2nc3c(cc2c1=O)CCCC3)Nc1cccc(F)c1 | 721
30 | O=C(c1cc(F)cc(F)c1)N1CCC(n2c(-c3ccco3)nc3cccnc32)C1 (configuration not stated) | 766
31 | CCn1ccc(C(=O)N2CCN(c3nc4cccnc4n(C)c3=O)CC2)n1 | 721
32 | COC(=O)c1ccccc1NC(=O)c1cnc2c(c1)c(=O)n(C)c(=O)n2-c1ccccc1 | 1030
33 | Cc1ccc(C(=O)Nc2nccnc2C(=O)NC2CCCCC2)cc1 | 1100
34 | COCCc1noc([C@@H]2CN(Cc3ccc(C(C)C)cc3)C[C@H]2CO)n1 | 663
35 | CCN1C(=O)C(C)(C(=O)Nc2ccc(OC)cc2)Oc2cccnc21 (configuration not stated) | 827
36 | COc1ccc(NS(=O)(=O)c2ccc(-c3nnc(C4CCC4)o3)o2)cc1F | 868
37 | CC(C)c1nnc(C2CN(C)CC23CCN(Cc2cccc(C(F)(F)F)c2)CC3)o1 (configuration not stated) | 578
38 | O=C(Nc1nccs1)C1CCCN(S(=O)(=O)c2cc(-c3noc(C4CCCC4)n3)cs2)C1 (configuration not stated) | 1060
39 | COc1ccc(OC)c(NC(=O)C2CCCN2S(=O)(=O)c2cc3c(cc2C)NC(=O)CO3)c1 (configuration not stated) | 772
40 | CCCn1cnc2cc(CNC(=O)c3cccc(C(F)(F)F)c3)ccc21 | 690
41 | O=S(=O)(NCC1CCCO1)c1ccc(Cl)c(-c2nnc(-c3ccccc3)o2)c1 (configuration not stated) | 914
42 | COc1ccc(-c2c(C)noc2NC(C)=O)cc1S(=O)(=O)Nc1ccc(C)cc1Cl | 837
43 | CCCS(=O)(=O)c1ccc(N2CCN(c3ccccc3OC)CC2)nn1 | 809
44 | COC(=O)N1CCc2ccc(F)cc2C1C(=O)Nc1cccc2nsnc12 (configuration not stated) | 754

Row | SMILES | RP-LC retention time [s]
45 | Cc1ccc(-c2nc(-c3cccc(-c4ccnn4C)c3)no2)s1 | 1160
46 | COC(=O)c1ccc2c(=O)n(CCc3ccccc3)c(N3CCSCC3)nc2c1 | 1150
47 | CCCC(NC(=O)C1CCCN(c2nc3c(s2)c(C)nn3-c2ccc(C)cc2)C1)c1cccs1 (configuration not stated) | 1300
48 | CSc1ccc(CNC(=O)c2cn3cccc(C)c3n2)cc1 | 755
49 | CN(C(=O)Cn1cncc(C(=O)NC2CCCC2)c1=O)c1ccccc1 | 767
50 | CC(NC(=O)Cc1nnc2cc(-c3nc(C4CC4)no3)ccn12)c1ccc(F)cc1 (configuration not stated) | 780
51 | C=CCN1CCN(c2ccc3nnc(CCc4nc(-c5ccccc5OC)no4)n3n2)CC1 | 573
52 | O=C(Nc1ccc2c(c1)OCCO2)c1ccnc(N2CCNC(c3ccccc3)C2)c1 (configuration not stated) | 638
53 | O=C(Cn1cccc(-c2nc(-c3ccc(F)cc3)no2)c1=O)Nc1cc(F)ccc1F | 915
54 | Cc1ccc(NC(=O)N2CCC(n3cnc4cc(Cl)ccc4c3=O)CC2)cc1C | 911
55 | COc1ccc(-c2nc(-c3cn(-c4cccc(Cl)c4)nn3)no2)cc1 | 1100
56 | O=C([C@@H]1C[C@H](F)CN1C(=O)Nc1cc(F)cc(F)c1)N1CCCCC1 | 766
57 | O=C(NC1CCN(c2cc(-c3ccccc3)[nH]n2)C1)c1ccc(F)c(F)c1 (configuration not stated) | 739
58 | O=S(=O)(NCC1Cn2cccc2CN1Cc1ccccc1)c1ccccc1 (configuration not stated) | 763
59 | CCc1cc(=O)n(CC(=O)Nc2ccccc2)c(N2CCOCC2)n1 | 687
60 | CN1CCN(CCCNC(=O)CN2C(=O)CCn3nc(-c4cn(C)c5ccccc45)cc32)CC1 | 587
61 | Cc1ccc(NC(=O)C(C)C2CCN(C(=O)Nc3ccc(F)cc3)CC2)cc1C (configuration not stated) | 928
62 | O=C(c1cn2nc(Cl)ccc2n1)N1CCN(c2ccccc2Cl)CC1 | 922
63 | CCc1ccccc1NC(=O)N(C)CCc1noc(COc2ccccc2)n1 | 962
64 | COc1ccc(-n2nnc(-c3nsc(Nc4cccc(Cl)c4)n3)c2C)cc1 | 1080
65 | Cc1csc(-c2cc(S(=O)(=O)NC3CCCC3)cn2CC(=O)N2CCCC2)n1 | 848
66 | Cn1c(N2CCCC(C(=O)NCCN3CCN(c4ccccc4F)CC3)C2)cc(=O)n(C)c1=O (configuration not stated) | 591

Row | SMILES | RP-LC retention time [s]
67 | CCCCCn1c(=O)c2c(nc3n2CCN3c2ccc(OC)cc2)n(C)c1=O | 1010
68 | O=C(C1COc2ccccc2O1)N1CCCn2nc(-c3cccs3)cc2C1 (configuration not stated) | 934
69 | CC(CNC(=O)CCS(=O)(=O)c1ccc2c(c1)CCN2C(=O)C1CC1)c1ccccc1 (configuration not stated) | 840
70 | CCc1nc2cc(CNC(=O)Cc3ccccc3C)ccc2n1C | 618
71 | O=C(CCCN1C(=O)C(c2ccccc2)Oc2cccnc21)NCCCN1CCOCC1 (configuration not stated) | 615
72 | COc1ccc(CCNC(=O)C2CCCN(S(=O)(=O)c3ccc(OC)c(Cl)c3)C2)cc1 (configuration not stated) | 938
73 | COc1ccc(-c2nnc(CC(=O)NCC3CC3)o2)cc1 | 732
74 | CN(C)C/C=C/C(=O)Nc1ccc(C(=O)Nc2cccc(Nc3ncc(Cl)c(-c4c[nH]c5ccccc45)n3)c2)cc1 | 800
75 | Cc1ccccc1Nc1c(-c2cc(Br)ccc2F)nc2ccc(Cl)cn12 | 1100
76 | CCOc1ccc(Cc2nc(-c3ccc4oc(C)nc4c3)no2)cc1 | 1250
77 | CSc1ncccc1C(=O)Nc1cccc(OCc2nnc(-c3ccccc3)o2)c1 | 908
78 | Cc1ccc(NC(=O)Cn2cnc3c(sc4nc(-c5ccccc5)ccc43)c2=O)c(F)c1 | 982
79 | Cc1ccc(C(=O)NCCn2c(=O)n(Cc3ccccc3)c3cccnc32)s1 | 805
80 | CCOC(=O)c1noc2ncnc(NCc3cccc(Cl)c3)c12 | 1040
81 | CCc1ccc(-c2csc(NC(=O)Cc3csc(-c4ccccc4)n3)n2)cc1 | 1240
82 | Cc1noc(-c2cccn2Cc2ccc(Cl)cc2)n1 | 1090
83 | O=C(c1ccccn1)N1CCCCC1c1nncn1CC1CC1 (configuration not stated) | 608
84 | CCn1c(N2CCCC(C(=O)NCc3ccc(OC)cc3OC)C2)cc(=O)n(C)c1=O (configuration not stated) | 752
85 | Cn1ncc2c3ccccc3n(CC(=O)NCCCN3CCOCC3)c2c1=O | 582
86 | O=C(CN1c2ccc(F)cc2-c2ccccc2S1(=O)=O)NCCCN1CCOCC1 | 625
87 | CCCn1ccc2sc(C)c(C(=O)NCCC(C)C)c2c1=O | 901
